{
  "source": "patent US6796966B2",
  "about": "“Apparatus, and kits for preventing of alleviating vasoconstriction or vasospasm in a mammal” (priority 1997, dated 2004)",
  "key": {"[1]": {"conditions": "in the presence of oxygen; cited from earlier work"}, "basilar artery": {"system": "basilar artery", "assay": "Reversal of endothelin-1-induced cerebral vasoconstriction; suffusion of exposed basilar artery in sCSF, video microscopy", "format": "in vivo, New Zealand White rabbits"}, "cerebral vasospasm": {"system": "cerebral vasospasm", "assay": "ITSNP therapy for alleviation and prevention of cerebral vasospasm after aneurysmal SAH, 16 patients", "format": "in vivo, human", "conditions": "pre-therapy administration"}, "[2]": {"conditions": "ET-1 100 nanomolar in sCSF, 1 milliliter per minute, Groups 4, 5, 6, n=38"}},
  "note": "Bridges are numbered along the chain shown (N, C = ends). Where no end group is shown, it is not given here.",
  "data": [
    {"compound": "[N]=O", "note": "[NO, nitric oxide]", "values": [
      {"measurement": "half-life in vivo", "setting": "[1]", "result": "measured in seconds"}
    ]},
    {"compound": "O=[N+]([O-])OCC(CO[N+](=O)[O-])O[N+](=O)[O-]", "note": "[NTG, nitroglycerine]", "values": [
      {"measurement": "change in baseline diameter of the basilar artery, substance alone", "setting": "basilar artery; rabbit, in vivo", "result": "did not produce changes"},
      {"measurement": "reversal of ET-1-induced vasoconstriction", "setting": "basilar artery; rabbit, in vivo", "result": "rapid and pronounced vasodilation"}
    ]},
    {"compound": "Cc1nccn1CC1CCc2c(c3ccccc3n2C)C1=O", "note": "(stereo not drawn) [ondansetron]", "values": [
      {"measurement": "effect on nausea associated with ITSNP therapy", "setting": "cerebral vasospasm", "result": "abolished"}
    ]},
    {"compound": "Endothelin-1 (CSCSSLMDKECVYFCHLDIIW; disulfide 1-15, 3-11; ends not checked; UniProt P05305 53-73, looked up) [ET-1]", "values": [
      {"measurement": "reduction of arterial diameter began, after starting the delivery", "setting": "basilar artery; [2]", "result": "5 to 8", "unit": "min"},
      {"measurement": "reduction of arterial diameter complete within", "setting": "basilar artery; [2]", "result": "20 to 30", "unit": "min"},
      {"measurement": "average minimal diameter, % of baseline diameter", "setting": "basilar artery; ET-1 100 nanomolar suffusion", "result": 50.4, "unit": "%"},
      {"measurement": "average minimal diameter of the artery", "setting": "basilar artery; ET-1 100 nanomolar suffusion, baseline 992 microns", "result": 500, "unit": "microns"},
      {"measurement": "return to baseline diameter after ET-1 when followed by sCSF alone", "setting": "basilar artery; Group 4, n=15", "result": "> 30", "unit": "min"}
    ]}
  ]
}
